Results: publication PMC12508156, “Non-canonical dihydrolipoyl transacetylase promotes chemotherapy resistance via mitochondrial tetrahydrofolate signaling” (Nature Communications, 2025)
“And” between values parts separate entries of the source, which are not always exact repeats. Identical values can stand only once.

Assays:
NADPH = NADPH level (NADP/NADPH-Glo); assay type: cell-based, human
Procedure: Cellular metabolic states were examined through various assays. To gauge the levels of total intracellular or mitochondrial reactive oxygen species (ROS), cells were stained with CM-H2DCFDA or mitoSOX, respectively. Intracellular H2O2, NADPH, acetyl-CoA, and GSH/GSSG ratios were quantified using commercial assay kits as listed in the Reagents. Intracellular ATP levels were determined utilizing the ATP bioluminescent somatic cell assay and normalized to the total protein concentrations. The de novo synthesized RNA and proteins were assessed in cancer cells using commercial assays following the manufacturer’s protocols. In brief, O-propargyl-puromycin or uridine analog, 5-EU, was applied to stop translation or modify RNA. Polypeptides or modified RNA were measured using fluorescent azide with Ex/Em at 494/521 nm. PDC activity was determined by measuring the reduction of NAD+ to NADH during the conversion of pyruvate into acetyl-CoA. […]
A549cisR (a) and KB-3-1cisR (b) cells were transduced with control or […]
µg/ml; KB-3-1cisR: 5 µg/ml) for 24 h. The GSH/GSSG ratio and relative NADPH levels were measured using GSH/GSSG-Glo Assay and NADP/NADPH-Glo Assay, respectively. Error bars represent SD and are from 4 independent biological replicates for the upper panels of (a,b) and 3 for the lower panels of (a,b). P values were determined by one-way ANOVA.
(1 picture or pasted object on this page, not shown here)

A549cisR cells = details: read-out: cisplatin IC50; A549cisR cells generated by continuous exposure to cisplatin; cited from earlier work
Procedure: (§1) The RNAi library contains 328 shRNA clones, and each gene was targeted by 2 ~ 8 clones (Fig. 1a). Eleven genes, including DLAT, were selected as unexplored lead hits with cisplatin-sensitizing potential and were further evaluated in A549^cisR, H1299, and KB-3-1^cisR, and two acetyltrans ... || HCT116 and HT-29 colon cancer cell lines, MDA-MB231, HeLa, 293T, and KB-3-1^cisR cells were cultured in Dulbecco Modified Eagle Medium (DMEM). The PCI-37B and FaDu cell lines was maintained in DMEM/Ham’s F-12 50/50 mix medium. […] All media contained 100 U/ml penicillin and 100 μg/ml of streptomycin, supplemented with 10% fetal bovine serum. The identity of KB-3-1 and PCI-37B cells were described previously[45],[58],[59]. All other cell lines were from the American Type Culture Collection (ATCC). KB-3-1^cisR and A549^cisR cells w ...

KB-3-1cisR cells = details: read-out: cisplatin IC50; KB-3-1cisR cells generated by continuous exposure to cisplatin; cited from earlier work
Procedure: as §1

ATP = assay: Intracellular ATP level; assay type: cell-based, human; design: unit not given here
Procedure: Cellular metabolic states were examined through various assays. To gauge the levels of total intracellular or mitochondrial reactive oxygen species (ROS), cells were stained with CM-H2DCFDA or mitoSOX, respectively. Intracellular H2O2, NADPH, acetyl-CoA, and GSH/GSSG ratios were quantified using commercial assay kits as listed in the Reagents. Intracellular ATP levels were determined utilizing the ATP bioluminescent somatic cell assay and normalized to the total protein concentrations. The de novo synthesized RNA and proteins were assessed in cancer cells using commercial assays following the manufacturer’s protocols. In brief, O-propargyl-puromycin or uridine analog, 5-EU, was applied to stop translation or modify RNA. Polypeptides or modified RNA were measured using fluorescent azide with Ex/Em at 494/521 nm. PDC activity was determined by measuring the reduction of NAD+ to NADH during the conversion of pyruvate into acetyl-CoA.

H1299 cells = assay: Apoptotic cell death (annexin V/PI staining); assay type: cell-based, human; details: cisplatin 5 μg/ml, 48 h, n=1-3: biological replicates

## N.N.[Cl][Pt][Cl] [cisplatin]
NADPH; A549cisR cells, pLKO.1, n=1
  NADPH: 0.7373
NADPH; A549cisR cells, pLKO.1, n=2
  NADPH: 0.7802
NADPH; A549cisR cells, pLKO.1, n=3
  NADPH: 0.7845
NADPH; A549cisR cells, shDLAT, n=1
  NADPH: 0.3926
NADPH; A549cisR cells, shDLAT, n=2
  NADPH: 0.3967
NADPH; A549cisR cells, shDLAT, n=3
  NADPH: 0.3159
NADPH; A549cisR, CTL, sheet Figure 5G, replicate n=1
  NADPH: 0.971
NADPH; A549cisR, CTL, sheet Figure 5G, replicate n=2
  NADPH: 0.9727
NADPH; A549cisR, CTL, sheet Figure 5G, replicate n=3
  NADPH: 1.056
NADPH; A549cisR, shDLAT+Flag-MTHFD2 (K44Q), sheet Figure 5G, replicate n=1
  NADPH: 1.569
NADPH; A549cisR, shDLAT+Flag-MTHFD2 (K44Q), sheet Figure 5G, replicate n=2
  NADPH: 1.336
NADPH; A549cisR, shDLAT+Flag-MTHFD2 (K44Q), sheet Figure 5G, replicate n=3
  NADPH: 1.475
NADPH; A549cisR, shDLAT+Flag-MTHFD2 (K44R), sheet Figure 5G, replicate n=1
  NADPH: 0.5654
NADPH; A549cisR, shDLAT+Flag-MTHFD2 (K44R), sheet Figure 5G, replicate n=2
  NADPH: 0.5995
NADPH; A549cisR, shDLAT+Flag-MTHFD2 (K44R), sheet Figure 5G, replicate n=3
  NADPH: 0.6728
NADPH; A549cisR, shDLAT, sheet Figure 5G, replicate n=1
  NADPH: 0.5978
NADPH; A549cisR, shDLAT, sheet Figure 5G, replicate n=2
  NADPH: 0.6166
NADPH; A549cisR, shDLAT, sheet Figure 5G, replicate n=3
  NADPH: 0.6336
NADPH; KB-3-1cisR cells, pLKO.1, n=1
  NADPH: 0.8565
NADPH; KB-3-1cisR cells, pLKO.1, n=2
  NADPH: 0.8236
NADPH; KB-3-1cisR cells, pLKO.1, n=3
  NADPH: 0.8268
NADPH; KB-3-1cisR cells, shDLAT, n=1
  NADPH: 0.3931
NADPH; KB-3-1cisR cells, shDLAT, n=2
  NADPH: 0.4089
NADPH; KB-3-1cisR cells, shDLAT, n=3
  NADPH: 0.429
NADPH; KB-3-1cisR, CTL, sheet Figure 5G, replicate n=1
  NADPH: 0.9984
NADPH; KB-3-1cisR, CTL, sheet Figure 5G, replicate n=2
  NADPH: 0.9855
NADPH; KB-3-1cisR, CTL, sheet Figure 5G, replicate n=3
  NADPH: 1.016
NADPH; KB-3-1cisR, shDLAT+Flag-MTHFD2 (K44Q), sheet Figure 5G, replicate n=1
  NADPH: 1.788
NADPH; KB-3-1cisR, shDLAT+Flag-MTHFD2 (K44Q), sheet Figure 5G, replicate n=2
  NADPH: 1.788
NADPH; KB-3-1cisR, shDLAT+Flag-MTHFD2 (K44Q), sheet Figure 5G, replicate n=3
  NADPH: 1.859
NADPH; KB-3-1cisR, shDLAT+Flag-MTHFD2 (K44R), sheet Figure 5G, replicate n=1
  NADPH: 0.4153
NADPH; KB-3-1cisR, shDLAT+Flag-MTHFD2 (K44R), sheet Figure 5G, replicate n=2
  NADPH: 0.3927
NADPH; KB-3-1cisR, shDLAT+Flag-MTHFD2 (K44R), sheet Figure 5G, replicate n=3
  NADPH: 0.4088
NADPH; KB-3-1cisR, shDLAT, sheet Figure 5G, replicate n=1
  NADPH: 0.404
NADPH; KB-3-1cisR, shDLAT, sheet Figure 5G, replicate n=2
  NADPH: 0.4217
NADPH; KB-3-1cisR, shDLAT, sheet Figure 5G, replicate n=3
  NADPH: 0.4378
A549cisR cells
  IC50: 17.6 µM
KB-3-1cisR cells
  IC50: 60.5 µM
ATP; A549cisR, pLKO.1, n=1 (Figure 3B)
  ATP level: 1.319
ATP; A549cisR, pLKO.1, n=2 (Figure 3B)
  ATP level: 1.28
ATP; A549cisR, pLKO.1, n=3 (Figure 3B)
  ATP level: 1.1923
ATP; A549cisR, shDLAT, n=1 (Figure 3B)
  ATP level: 1.405
ATP; A549cisR, shDLAT, n=2 (Figure 3B)
  ATP level: 1.318
ATP; A549cisR, shDLAT, n=3 (Figure 3B)
  ATP level: 1.292
ATP; KB-3-1cisR, pLKO.1, n=1 (Figure 3B)
  ATP level: 1.593
ATP; KB-3-1cisR, pLKO.1, n=2 (Figure 3B)
  ATP level: 1.725
ATP; KB-3-1cisR, pLKO.1, n=3 (Figure 3B)
  ATP level: 1.722
ATP; KB-3-1cisR, shDLAT, n=1 (Figure 3B)
  ATP level: 1.707
ATP; KB-3-1cisR, shDLAT, n=2 (Figure 3B)
  ATP level: 1.7048
ATP; KB-3-1cisR, shDLAT, n=3 (Figure 3B)
  ATP level: 1.693
H1299 cells; H1299 pLKO.1
  Apoptotic death: 12.41
H1299 cells; H1299 shDLAT #1
  Apoptotic death: 23.45 and 22.74
H1299 cells; H1299 shDLAT #2
  Apoptotic death: 18.43
